Experimental data taken from a melting point compilation (Tetko et al.; mined from patent text by program, amines drawn as free bases though some values may be those of a salt).

| melting point [°C] | SMILES |
| --- | --- |
| 115 to 117 | COC(=O)[C@]1(O)Cc2c(OC)ccc(OC)c2C2(C1)SCCS2 |
| 135 to 137 | CC(C)(C(=O)Nc1cccc(Cl)c1)N1OCC(CI)=C(c2ccccc2)C1=O |
| 140 to 141 | CNC(=O)[C@H]1S[C@@H](n2cnc3c(NCc4cccc(I)c4)nc(Cl)nc32)[C@H](O)[C@@H]1O |
| 139 to 143 | CN1CCCN(C(=O)Nc2ccccc2Cc2ncc[nH]2)CC1 |
| 98 to 100 | N#CC1=C(Nc2cccc(F)c2)CCC1 |
| 295 to 297 | COc1cc2c(O)c(S(=O)(=O)N(C)C)cnc2cc1C |
| 143 to 144 | CCn1c2ccc(C=O)cc2c2c3ccccc3ccc21 |
| 94 to 95 | CC(C(=O)O)c1ccc2c(c1)C(=O)CC(C(C)C)O2 (centres undefined) |
| 229 to 232 | CC(=O)Nc1cc(I)ccc1C(=O)O |
| 250 | CCNCC(=O)Nc1cccc2c1C(=O)c1c-2n[nH]c1-c1ccc(OC)cc1 |
| 162 to 164 | O=C1CCC(c2c[nH]c3ncccc23)CC1 |
| 224 to 226 | O=C(O)C1=Cc2cccc(Cl)c2OC1C(F)(F)F (centres undefined) |
| 272 to 274 | Cc1ccc(Sc2cncc3sc(C(=O)O)cc23)cc1 |
| 210 to 212 | CC(C)(C)c1cc(-c2nn(CC(=O)O)c3ncccc23)cc(C(C)(C)C)c1O |
| 92 to 93 | COc1ccc(COC(=O)c2ccc3ccccc3c2O)cc1 |
| 60 | CCOC(=O)C(=O)CC(=O)N1CCOCC1 |
| 52 to 54 | CC(C)(C)[Si](C)(C)C(F)(F)F |
| 232 to 235 | O=C(O)c1cn(C2CC2F)c2c(F)c(F)c(F)cc2c1=O (centres undefined) |
| 151 | CC(C)(C)c1ccc(S(=O)(=O)/C=C/C(N)=O)cc1 |
| 50 to 53 | CCCc1c(OCCCOc2ccc(C(C)=O)c(OCCCC(=O)O)c2CCC)ccc(C(C)=O)c1O |
| 83 to 85 | CC(=O)SCC(Cc1ccccc1)C(=O)NC(C)(C)C(=O)OCc1ccccc1 (centres undefined) |
| 117 to 122 | Cc1nc(C)c(C(=O)Nc2ccc(-n3nc(C(F)(F)F)cc3C3CC3)cc2)s1 |
| 118 to 120 | O=C(O)CCc1cccc(OCc2nc(-c3ccccc3)c(-c3ccccc3)o2)c1 |

| melting point [°C] | SMILES |
| --- | --- |
| 170 | OC1CSC(Oc2cccnc2-c2nnn[nH]2)C(O)C1O (centres undefined) |
| 221 to 222 | O=C1NC(O)C2=C1c1ccc(Cl)cc1C(c1ccccc1Cl)=NC2 (centres undefined) |
| 138 to 139 | CCOC(=O)c1n[nH]c(CC)c1Sc1cc(Cl)cc(Cl)c1 |
| 77 to 85 | NC1CCCCC1C(O)c1ccccc1 (centres undefined) |
| 215 to 218 | O=C(NCCCCN1CCN(C(c2ccccc2)c2ccccc2)CC1)c1cnc2cccc(O)c2c1O |
| 100 | CCOC(=O)CCN1C(=O)NC(C)(CCc2cc(C(C)(C)C)c(O)c(C(C)(C)C)c2)C1=O (centres undefined) |
| 118 to 120 | COc1ccc(COc2ccc(N)cc2)cc1 |
| 135 to 139 | COc1ccc(-c2csc(NC(=O)COc3ccc(Cl)cc3Cl)n2)cc1 |
| 74 | CCC[C@H]1CC[C@H](c2ncc(C#N)cn2)CC1 |
| 226 to 228 | O=C1C=CC2=CN=C(Cc3ccccc3)N3CCC(=C23)N1 |
| 143 to 146 | O=C(O)CCC(=O)C(Cc1ccccc1)NC(=O)c1ccccc1 (centres undefined) |
| 176 to 177 | CCC1CC(=O)c2c(NC(=O)C(=O)O)ccc(C)c21 (centres undefined) |
| 46 to 48 | CCCCCCCCCCCCCCCCCCOc1ccc(C(=O)C(=O)OCC)cc1 |
| 189 to 192 | CC(=O)C1CCC2=C(C1)C(=O)c1cc3ccccc3cc1C2=O (centres undefined) |
| 133 to 135 | CC(C)(C)c1cc2ncnn2nc1OCCN1CCC(OC(c2ccccc2)c2ccccc2)CC1 |
| 60 to 62 | COc1cc(OCC(=O)O)c(C)cc1SCc1ccc(-c2ccccc2)cc1 |
| 91 to 92 | CCOC(=O)C(C)NC(=O)CN(C(=O)c1ccc(Cl)cc1)c1c(C)cccc1C (centres undefined) |
| 109 to 111 | COc1cc(-c2cc(=O)c3c(OC)c(OC)c(OC)c(OC)c3o2)ccc1OCc1ccccc1 |
| 149 to 150 | C/C(=C(\C#N)C(N)=S)N1CCCCCCC1 |
| 173 to 174 | CC1OC(=S)Nc2ccc(-c3cccc(F)c3)cc21 (centres undefined) |
| 108 to 110 | CCN(CC)CCNC(=O)c1cc(Cl)c(N)cc1OCCOC |
| 133 to 136 | Cc1c(C)c(N2CCN(c3ccc(C(C)O)cc3)CC2)c(C)c2c1OC(C)(C)C2 (centres undefined) |
| 129 to 130 | O=c1[nH]c2ccc(NCCCc3ccccc3)cc2o1 |

| melting point [°C] | SMILES |
| --- | --- |
| 189 to 190 | Oc1csc(Cc2n[nH]c3ccccc23)c1 |
| 169 to 171 | C#CCOc1ccc2c(C)nnc(Cl)c2c1 |
| 215 to 218 | CC(=C1SC(=O)NC1=O)c1ccc(OCCOc2c(-c3ccc(F)c(F)c3)n(C)c3ccc(F)cc3c2=O)c(Cl)c1 |
| 206 to 208 | O=C1CSCC(=O)NCCNCCN1 |
| 114 to 116 | CCOP(=O)(OCC)c1nc(N2CCOCC2)nc(N2CCOCC2)n1 |
| 193 to 195 | COc1cccc(Nc2nc(-n3nc(C)cc3C)nc3ccccc23)c1 |
| 152 to 154 | O=c1oc(OCc2ccccc2)nc2ccccc12 |
| 192 to 194 | CCC1(CC)c2cc(-c3nc4ccccc4s3)ccc2-c2ccc(N(c3ccc(Oc4ccc(N)cc4)cc3)c3ccc(Oc4ccc(N)cc4)cc3)cc21 |
| 212 to 214 | Cc1c(C)c(N2CCN(c3ccc(C(F)(F)F)cc3)CC2)c(C)c2c1OC(C)(C)C2O (centres undefined) |
| 104 to 106 | COC(=O)c1cc2c(s1)[C@@H](N1CCCCC1=O)[C@H](O)C(C)(C)O2 (relative stereo) |
| 118 to 120 | CCOC(=O)C(=O)Nc1sc(C(=O)OCC)c(C)c1[N+](=O)[O-] |
| 52 to 53.5 | COCc1nc(-c2ccc(Br)c(C)c2)no1 |
| 124 to 126 | CCCn1cc(Cc2ccc(C(=O)O)cc2OC)c2cc(C=CCC(=O)N(C)C)ccc21 |
| 160 to 162 | CCOC(=O)c1cccc2c1CCCC2C(N)=O (centres undefined) |
| 148 to 150 | COc1cc2c(cc1OC)C1C(Cl)=NC=NC1N2 (centres undefined) |
| 250 | O=C(O)C(Cc1cc(Oc2c(Cl)cc(C(F)(F)F)cc2Cl)ccc1SC(F)(F)F)C(=O)O |
| 239 to 241 | Cc1ccc(C(=O)NCc2ccccc2)cc1-c1nc(S(C)(=O)=O)nc2c1CNC(=O)N2c1c(F)cccc1F |
| 139 to 140 | O=S1NC(CCCc2ccc3ccccc3c2)=NO1 (centres undefined) |
| 223 to 225 | CCc1nc2c(N)nc3cc(OCCNC(=O)NC(C)C)ccc3c2n1CC1CCOCC1 |
| 190 | Cc1[nH]c2cccc(NC(=O)NCc3ccc(Br)cc3)c2c1C |
| 145 to 147 | Cc1ccc(COc2cccnc2NC(=S)Nc2ccc(Cl)cc2)cc1 |
| 78.8 to 79.7 | CCC(C)Cc1ccc(C(=O)O)cc1Br (centres undefined) |
| 210 to 211 | COc1cc(-c2cnc3[nH]cc(C(=O)CC(C)C)c3n2)cc(OC)c1OC |

| melting point [°C] | SMILES |
| --- | --- |
| 76.1 to 80.1 | Cc1ncc(CO)c2c1OC(C(F)(F)F)C(C(=O)O)=C2 (centres undefined) |
| 160 to 161 | COc1cc(CCCS2(OCC(=O)O)C=CN=C2)cc(OCc2ccc3ccccc3c2)c1 (centres undefined) |
| 85 to 87 | Cc1c(SCCCSc2nc3ccccc3[nH]2)ccnc1CSc1nc2ccccc2[nH]1 |
| 188 | O=C1CCCN1[C@H]1CC[C@@H](C(=O)O)CC1 |
| 210 to 212 | CC(C)c1ccc(S(=O)(=O)c2ccccc2)cc1S(=O)(=O)NC1CCN(C(=O)c2ccccc2F)CC1 |
| 158 to 161 | COc1cc(C2NCCS2)ccc1O (centres undefined) |
| 156 to 174 | CC1CC2C3CCC4=CC(=O)C=CC4(C)C3=CCC2(C)C1C(=O)CN1CCN(c2cc(N3CCC4(CC3)OCCO4)nc(N3CCC4(CC3)OCCO4)n2)CC1 (centres undefined) |
| 97 to 98 | Cc1nc(C)c(Cl)c(NCc2cc(OCC(F)(F)F)c(OCc3ccccc3)c(Br)n2)n1 |
| 114 to 116 | C[C@H]1CCCC(C)(C)[C@@H]1C(=O)c1ccoc1 |
| 29 to 31 | COC(=O)c1c(C(F)(F)F)nc(C(F)(F)F)c(C(=O)OC)c1[Si](C)(C)C |
| 121 to 122 | CCCCC/C(=C\C=C\C(=S)NCCCCc1cccnc1)c1ccc(OC)cc1 |
| 104 to 106 | CCCC1=CC(NC)=Nc2ccc(Cl)cc2C(c2ccccc2)=[N+]1[O-] |
| 123 to 124 | CC(=O)Oc1ccc2ccc(=O)oc2c1CC(Br)CBr (centres undefined) |
| 144 to 147 | COc1ccc(-c2ccc(-c3ccc(C(F)(F)F)cc3)nc2-c2ccc(OC)cc2)cc1 |
| 164 | O=C(c1ccc(F)cc1)C1CCN(CCCn2c(=O)[nH]c3ccccc32)CC1 |
| 170 | COC1=C(OC)C(=O)C(CCC(=O)N[C@@H](Cc2ccc(O)cc2)C(=O)O)=C(C)C1=O |
| 226 to 234 | Cc1ccc(F)cc1C(=O)Nc1ccc(C(=O)N2Cc3cccn3-c3ncccc32)cn1 |
| 63 to 66 | CCN(CC)c1ccc(N)cc1C#N |
| 114 to 115 | COc1ccc(C2(C(C)(C)O)CCN(C)CC2)cc1 |
| 138 to 145 | CP(=O)(O)C(CCc1ccccc1)NC(=O)C(F)(F)F (centres undefined) |
| 101 | COc1cccc(-c2ccc(C3C(CCC(O)c4ccc(F)cc4)C(=O)N3c3ccc(F)cc3)cc2)c1OC (centres undefined) |
| 158 to 160 | CC(C)C(NC(=O)N(C)Cc1ccccn1)C(=O)N(C(=O)C(NC(=O)N(C)Cc1nccs1)C(C)C)C(Cc1ccccc1)C(O)CCCc1ccccc1 (centres undefined) |
| 262 to 263 | CC(C)c1ccc(S(=O)(=O)NC(=O)Cc2ccc3c(c2)OCO3)cc1 |

| SMILES | melting point [°C] |
| --- | --- |
| CNc1nc(C)c(-c2nc3ccccc3c(=O)n2-c2ccccc2Cl)s1 | 214 to 215 |
| CCOc1cc(CCl)nc(C)n1 | 29 |
| Cc1nc2cc(C(=O)NC(C)C)c(NC(=O)c3cc(C(F)(F)F)nn3-c3ncccc3Cl)c(Cl)c2n1C | 248 to 250 |
| COCc1ncn2c1CN(C)C(=O)c1c(Cl)cccc1-2 | 143 to 144 |
| c1ccc(C(C2=NCCN2)c2ccccn2)cc1 (centres undefined) | 134 to 136 |
| N=c1sc2ccccc2n1C(C=O)c1ccc(Cl)cc1 (centres undefined) | 114 |
| C=C(C(=O)N1CCOCC1)c1cccc(-c2cc3c(cc2C)C(C)(C)CCC3(C)C)c1 | 158 to 159 |
